Assay results reported in PMC3234597, “Two Panels of Steroid Receptor Luciferase Reporter Cell Lines for Compound Profiling” (Combinatorial Chemistry & High Throughput Screening, 2011).
pEC50, pIC50: −log10 of the molar value. Where a name gives a salt, the structure may show the parent alone. Read-outs that look alike come from different tables or passages of the source.

Key:
Assay type in all cases: cell-based
PR-LBD fused to Gal4-DBD = target: T1, PR-LBD fused to Gal4-DBD (Homo sapiens, UniProt P06401); experiment: U2OS-PR-LBD/9xGal4UAS luciferase reporter cell line
T1 construct: PR-LBD region was PCR amplified using the following primer combination; host or cells: U2OS
T1 sequence (P06401 679-913 limits assumed): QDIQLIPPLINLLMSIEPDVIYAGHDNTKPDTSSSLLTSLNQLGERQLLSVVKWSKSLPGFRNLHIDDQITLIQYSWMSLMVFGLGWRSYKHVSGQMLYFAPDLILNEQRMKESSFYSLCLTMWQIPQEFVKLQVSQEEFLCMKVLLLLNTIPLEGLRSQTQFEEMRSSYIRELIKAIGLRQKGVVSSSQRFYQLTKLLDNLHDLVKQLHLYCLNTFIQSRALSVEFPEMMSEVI

MR-LBD fused to Gal4-DBD = target: T2, MR-LBD fused to Gal4-DBD (Homo sapiens, UniProt P08235); experiment: U2OS-MR-LBD/9xGal4UAS luciferase reporter cell line; conditions: for EC50: read-out: Log EC50 (converted)
T2 construct: MR-LBD was cloned by RT-PCR from total RNA isolated from HEK293 cells; expressed in transfected cells; host or cells: U2OS
T2 sequence (P08235 726-964 limits assumed): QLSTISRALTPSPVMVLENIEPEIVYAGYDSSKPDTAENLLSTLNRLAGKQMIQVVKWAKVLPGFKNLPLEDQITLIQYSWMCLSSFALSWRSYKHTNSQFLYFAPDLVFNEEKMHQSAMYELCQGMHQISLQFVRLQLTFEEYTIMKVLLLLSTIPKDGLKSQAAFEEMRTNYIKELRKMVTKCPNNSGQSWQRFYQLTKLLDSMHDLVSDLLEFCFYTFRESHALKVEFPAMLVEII

human MR (full-length) = target: T3, human MR (full-length) (Homo sapiens, UniProt P08235); experiment: U2OS-MR/MMTV luciferase reporter cell line (full-length receptor); conditions: for EC50: read-out: Log EC50 (converted)
T3 construct: expression vectors encoding full-length steroid receptors: pcDNA3-hAR, pcDNA3-hGR and pcDNA3-hMR; expressed in transfected cells; host or cells: U2OS
T3 sequence (P08235 1-984): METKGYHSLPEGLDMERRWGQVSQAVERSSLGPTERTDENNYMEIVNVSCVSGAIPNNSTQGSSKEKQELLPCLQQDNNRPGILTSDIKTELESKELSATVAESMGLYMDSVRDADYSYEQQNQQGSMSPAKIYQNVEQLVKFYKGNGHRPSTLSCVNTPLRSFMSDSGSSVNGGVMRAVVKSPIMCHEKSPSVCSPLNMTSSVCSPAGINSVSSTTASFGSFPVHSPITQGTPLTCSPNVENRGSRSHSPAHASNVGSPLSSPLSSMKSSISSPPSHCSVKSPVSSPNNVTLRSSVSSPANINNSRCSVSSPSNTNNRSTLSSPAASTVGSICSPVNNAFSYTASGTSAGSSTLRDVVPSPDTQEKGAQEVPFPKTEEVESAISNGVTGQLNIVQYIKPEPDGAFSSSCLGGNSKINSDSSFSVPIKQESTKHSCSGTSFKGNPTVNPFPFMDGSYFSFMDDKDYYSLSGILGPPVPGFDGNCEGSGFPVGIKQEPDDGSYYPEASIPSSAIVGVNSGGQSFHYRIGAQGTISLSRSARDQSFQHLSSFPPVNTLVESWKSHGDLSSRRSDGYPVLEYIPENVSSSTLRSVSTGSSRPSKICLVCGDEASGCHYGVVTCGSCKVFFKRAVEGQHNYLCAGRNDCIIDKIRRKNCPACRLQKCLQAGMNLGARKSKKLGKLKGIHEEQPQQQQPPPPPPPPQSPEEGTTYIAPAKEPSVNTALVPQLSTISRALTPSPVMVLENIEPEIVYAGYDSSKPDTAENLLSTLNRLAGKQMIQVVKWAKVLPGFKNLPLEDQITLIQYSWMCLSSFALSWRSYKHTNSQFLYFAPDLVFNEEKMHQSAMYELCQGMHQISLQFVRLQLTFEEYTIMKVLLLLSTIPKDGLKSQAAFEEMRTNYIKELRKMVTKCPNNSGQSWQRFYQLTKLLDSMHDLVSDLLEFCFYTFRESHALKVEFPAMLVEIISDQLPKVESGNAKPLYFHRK

human GR (full-length) [1] = target: T4, human GR (full-length) (Homo sapiens, UniProt P04150); experiment: U2OS-GR/3xGRE luciferase reporter cell line (full-length receptor)
T4 construct: expression vectors encoding full-length steroid receptors: pcDNA3-hAR and pcDNA3-hGR; host or cells: U2OS
T4 sequence (P04150 1-777): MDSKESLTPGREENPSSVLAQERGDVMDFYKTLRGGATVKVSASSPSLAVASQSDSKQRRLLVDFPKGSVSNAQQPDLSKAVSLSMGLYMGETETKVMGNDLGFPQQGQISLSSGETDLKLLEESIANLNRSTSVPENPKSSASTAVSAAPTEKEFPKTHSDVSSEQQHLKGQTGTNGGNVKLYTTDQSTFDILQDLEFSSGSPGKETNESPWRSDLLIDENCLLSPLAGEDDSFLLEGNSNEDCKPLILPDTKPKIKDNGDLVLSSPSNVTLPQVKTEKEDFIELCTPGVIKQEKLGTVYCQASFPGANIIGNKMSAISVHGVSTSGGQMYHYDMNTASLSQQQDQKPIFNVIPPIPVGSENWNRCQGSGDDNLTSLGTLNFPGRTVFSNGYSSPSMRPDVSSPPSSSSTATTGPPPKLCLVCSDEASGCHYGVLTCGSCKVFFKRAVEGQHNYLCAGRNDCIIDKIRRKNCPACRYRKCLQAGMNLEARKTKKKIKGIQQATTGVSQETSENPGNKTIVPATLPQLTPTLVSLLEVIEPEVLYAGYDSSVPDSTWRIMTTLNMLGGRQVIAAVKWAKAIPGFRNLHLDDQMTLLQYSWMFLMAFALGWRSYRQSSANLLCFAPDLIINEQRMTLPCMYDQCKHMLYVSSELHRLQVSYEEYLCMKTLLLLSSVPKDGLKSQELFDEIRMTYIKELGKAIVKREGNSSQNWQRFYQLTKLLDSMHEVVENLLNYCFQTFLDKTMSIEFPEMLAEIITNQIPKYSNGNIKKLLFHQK

human GR (full-length) [2] = target: T4, human GR (full-length); experiment: U2OS-GR/MMTV luciferase reporter cell line (full-length receptor)
GR-LBD fused to Gal4-DBD = target: T5, GR-LBD fused to Gal4-DBD (Homo sapiens, UniProt P04150); experiment: U2OS-GR-LBD/9xGal4UAS luciferase reporter cell line
T5 construct: expressed in transfected cells; host or cells: U2OS
T5 sequence (P04150 524-758 limits assumed): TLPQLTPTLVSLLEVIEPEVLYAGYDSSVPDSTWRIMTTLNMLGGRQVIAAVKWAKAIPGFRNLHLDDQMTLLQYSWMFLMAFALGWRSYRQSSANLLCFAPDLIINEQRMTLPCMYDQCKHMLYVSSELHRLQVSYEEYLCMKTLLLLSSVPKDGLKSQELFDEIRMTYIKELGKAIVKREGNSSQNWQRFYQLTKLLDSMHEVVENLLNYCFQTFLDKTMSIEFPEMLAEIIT

human ERβ (full-length) = target: T6, human ERβ (full-length) (Homo sapiens, UniProt Q92731); experiment: U2OS-ERβ/3xERE luciferase reporter cell line (full-length receptor)
T6 construct: expression vectors encoding full-length steroid receptors: pcDNA3-hERα and pcDNA3-ERβ; expressed in transfected cells; host or cells: U2OS

[3] = target: T7, ERβ-LBD fused to Gal4-DBD (Homo sapiens, UniProt Q92731); experiment: U2OS-ERβ-LBD/9xGal4UAS luciferase reporter cell line
T7 construct: region comprising ERβ-LBD and a piece of the hinge region; expressed in transfected cells; host or cells: U2OS
T7 sequence (Q92731 264-498 limits assumed): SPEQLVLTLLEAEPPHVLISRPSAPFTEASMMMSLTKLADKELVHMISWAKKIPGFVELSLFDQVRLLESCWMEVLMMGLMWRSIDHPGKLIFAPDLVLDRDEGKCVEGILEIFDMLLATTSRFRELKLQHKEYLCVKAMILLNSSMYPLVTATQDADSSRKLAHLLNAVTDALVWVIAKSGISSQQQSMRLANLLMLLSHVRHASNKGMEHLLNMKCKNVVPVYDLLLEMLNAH

T6 sequence (Q92731 whole entry): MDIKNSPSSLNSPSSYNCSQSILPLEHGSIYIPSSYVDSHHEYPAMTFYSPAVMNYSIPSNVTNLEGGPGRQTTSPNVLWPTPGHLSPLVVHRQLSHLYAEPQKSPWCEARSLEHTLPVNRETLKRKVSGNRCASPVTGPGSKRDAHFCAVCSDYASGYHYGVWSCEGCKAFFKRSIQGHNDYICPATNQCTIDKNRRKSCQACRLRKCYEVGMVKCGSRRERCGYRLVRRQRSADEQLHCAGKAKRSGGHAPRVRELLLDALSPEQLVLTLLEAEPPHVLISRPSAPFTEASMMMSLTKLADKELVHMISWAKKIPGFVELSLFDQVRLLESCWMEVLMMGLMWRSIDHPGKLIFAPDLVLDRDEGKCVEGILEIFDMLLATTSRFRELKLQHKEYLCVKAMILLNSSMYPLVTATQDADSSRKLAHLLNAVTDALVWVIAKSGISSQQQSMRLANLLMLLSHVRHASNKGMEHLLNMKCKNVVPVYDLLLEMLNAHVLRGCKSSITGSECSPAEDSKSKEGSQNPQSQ

Compound `C[C@]12CCC(=O)C[C@@H]1CC[C@@H]1[C@@H]2CC[C@]2(C)[C@@H](O)CC[C@@H]12` [Dihydrotestosterone, 5α-androstan-17β-ol-3-one] has a pEC50 (PR-LBD fused to Gal4-DBD) of 6.40, a pIC50 (PR-LBD fused to Gal4-DBD) of under 5.00 and a pEC50 (MR-LBD fused to Gal4-DBD) of under 5.00. It also gave a pEC50 (human MR (full-length)) of under 5.00.

For `CC#C[C@]1(O)CC[C@H]2[C@@H]3CCC4=CC(=O)CCC4=C3[C@@H](c3ccc(N(C)C)cc3)C[C@@]21C` [Mifepristone (RU486), mifepristone], the “activity profile in words” value (human GR (full-length) [1]; full-length GR reporter cell line U2OS-GR/3xGRE) was “partial agonist/full antagonist”, the “activity profile in words” value (human GR (full-length) [2]; full-length GR reporter cell line U2OS-GR/MMTV) was “partial agonist/full antagonist” and the “activity profile in words” value (GR-LBD fused to Gal4-DBD; GR LBD format (U2OS-GR-LBD/9xGal4UAS)) was “very potent pure full antagonist”.

Compound `CC1(C)NC(=O)N(c2ccc([N+](=O)[O-])c(C(F)(F)F)c2)C1=O` [Nilutamide, nilutamide] has an IC50 (PR-LBD fused to Gal4-DBD; antagonist mode, PR-LBD/9xGal4UAS, log10 of molar IC50, mean ± SEM, read-out: Log IC50 (converted)) of over 10 µM, an EC50 (PR-LBD fused to Gal4-DBD; read-out: Log EC50 (converted)) of over 10 µM and an EC50 (MR-LBD fused to Gal4-DBD) of over 10 µM. It also gave an EC50 (human ERβ (full-length); read-out: Log EC50 (converted)) of over 10 µM, an EC50 ([3]; read-out: Log EC50 (converted)) of over 10 µM and an EC50 (human MR (full-length)) of over 10 µM.

Compound `O=C(c1ccc(OCCN2CCCCC2)cc1)c1c(-c2ccc(O)cc2)sc2cc(O)ccc12` [Raloxifene hydrochloride, raloxifene hydrochloride] has an EC50 (MR-LBD fused to Gal4-DBD) of over 10 µM and an EC50 (human MR (full-length)) of over 10 µM.

With `CC/C(=C(\c1ccccc1)c1ccc(OCCN(C)C)cc1)c1ccccc1` [Tamoxifen citrate, tamoxifen citrate] the EC50 (human GR (full-length) [1]; read-out: Log EC50 (converted)) was over 10 µM, the EC50 (MR-LBD fused to Gal4-DBD) was over 10 µM and the EC50 (human GR (full-length) [2]; read-out: Log EC50 (converted)) was over 10 µM. It also gave an EC50 (human MR (full-length)) of over 10 µM and an EC50 (GR-LBD fused to Gal4-DBD; read-out: Log EC50 (converted)) of over 10 µM.

With `C[C@]12CC[C@H]3[C@@H](CCC4=CC(=O)CC[C@@]43C)[C@@H]1CC[C@@H]2O` [Testosterone, testosterone] the pEC50 (human GR (full-length) [1]) was under 5.00, the pEC50 (PR-LBD fused to Gal4-DBD) was 7.33 and the pIC50 (PR-LBD fused to Gal4-DBD) was under 5.00. For the same compound, the pEC50 (MR-LBD fused to Gal4-DBD) was under 5.00, the pEC50 (human ERβ (full-length)) was 6.31 and the pEC50 [3] was 5.54. The pEC50 (human GR (full-length) [2]) was under 5.00, the pEC50 (human MR (full-length)) was under 5.00 and the pEC50 (GR-LBD fused to Gal4-DBD) was under 5.00.
